Measured values published in paper PMC12036875, “Mitochondria-targeting natural product rhein conjugated with dichloroacetate as the dual inhibitor of glycolysis and oxidative phosphorylation to off energize cancer cells and induce ROS storm” (Theranostics, 2025).

Experiments:
4T1 cells [1] = assay: ROS generation assay; assay type: cell-based, Mouse; conditions: for intracellular ROS (DCFH-DA fluorescence intensity): 6.25 μM, 6 h
Method: Rhein is thought to trigger the generation of ROS inside cells by inhibiting mitochondrial complex II, blocking electron transfer from succinate to ubiquinone, which leads to electron leakage at the flavoprotein site, [32]. Therefore, we investigated the ROS production within 4T1 cells in control, DCA, rhein, R + D and Rhein-DCA groups. […] Then, the cellular superoxide radical anion type of ROS production was further detected using dihydroethidium (DHE) fluorescence dyes after incubation with 4T1 cells. […] The flow cytometry was used to further confirm the types of reactive oxygen species, including singlet oxygen (^1O2) and hydroxyl radicals (·OH). The ^1O2 increased greatly about 2.4-fold compared with the control group, and ·OH increased about 1.4-fold (Figure 5D-E). […] Due to the conjugating of rhein, the more mitochondrial accumulation and enhanced PDK inhibition activity of DCA promoted the energy metabolism to redirect towards OXPHOS, increased the mitochondrial electron flux, and amplified the generation of ROS. Excessive ROS would cause oxidative damage of mitochondria and further frustrate OXPHOS, leading to the effectively suppress for cancer cells.
The generation of intracellular ROS within 4T1 cells was measured with DCFH-DA, BBoxiProbe O28 and BBoxiProbe O68 and evaluated by flow cytometry. 4T1 cells were seeded into 6-well plates at a density of 10 × 10^4 cells per well and cultured at 37 °C for 24 h. The cells were treated with rhein (6.25 μM), DCA (6.25 μM), R + D (6.25 μM + 6.25 μM) and Rhein-DCA (6.25 μM) for another 6 h. Cells were detached from the plates with 0.25% Trypsin-EDTA after washed twice with PBS, flowing staining with DCFH-DA (10 μM), BBoxiProbe O28 (Ex = 516 nm, Em = 606 nm) and BBoxiProbe O68 (Ex = 516 nm, Em = 606 nm) for 20 min at 37 °C in the dark.
The level of intracellular superoxide radical anion in 4T1 cells was analyzed with DHE by confocal microscope. 4T1 cells were seeded into confocal dishes with a density of 10 × 10^4 cells per well and treated with various drugs for 24 h and washed twice with PBS, flowing staining with DHE probe (5 μM) for 30 min at 37 °C in the dark. The cellular nuclei were stained with Hoechst 33342 for 10 min at room temperature. The fluorescent images were observed by confocal microscope.

4T1 cells [2] = assay: Cell apoptosis assay (Annexin V-Alexa Fluor 647/PI flow cytometry); assay type: cell-based, Mouse; conditions: 6.25 μM, 24 h
Method: Correspondingly, the fall of intracellular ATP amount and the release of Cyt C directly drove cells into apoptosis. Flow cytometry apoptosis assay was conducted on the 4T1 cells after culture with different drugs at 6.25 μM for 24 h. The treated cells were stained with Annexin V-Alexa Flour 647 and PI. […] Since the antitumor effect could only be achieved when DCA was used in high dose, it is in agreement with reported literature. Similar to rhein group, the apoptosis rate in R + D group increased to approximately 12%.
Annexin V/PI staining was used to analyze the apoptosis of cancer cells. 4T1 cells were seeded into 6-well plates at a density of 10 × 10^4 cells per well. The cells were permitted to resume exponential growth for 24 h and treated with various drugs. After another 24 h incubation, the supernatant was collected in 1.5 mL tubes. The cells were treated with 100 μL of 0.25% Trypsin-EDTA for 2 min, subsequently 300 μL fresh medium were added which was combined with the corresponding supernatant. The cells were obtained following centrifugation at 434 G for 5 min and washed twice with PBS, and then resuspended in 500 μL of binding buffer (1 ×). The cells were stained with Annexin V/Alexa Fluor 647 and PI (20 μg/mL) for 5 min at room temperature in the dark. The fluorescence signal was immediately detected by flow cytometry and the data were analyzed by FlowJo software.

[3] = Stability in simulated gastrointestinal environment (HPLC); assay type: physicochemical; conditions: 37°C, within 2 h
Method: The proven oral administration experiences of rhein and DCA validated the feasibility and potential of our research on the oral administration of their derivative, Rhein-DCA [34], [35]. We first evaluated the stability of Rhein-DCA by simulating gastric acid (pH 1.5) and intestinal (pH 6.8) conditions in vitro with HPLC. The stability of the Rhein-DCA was as high as 85% within 2 h, indicating the stable of Rhein-DCA in gastrointestinal environment, and it was capable of being efficiently absorbed via the gastrointestinal tract (Figure S21).
Prepare phosphate buffer solutions at pH 1.5 (gastric simulation) and pH 6.8 (intestinal simulation). Rhein-DCA was added to the buffer and incubated at 37°C. Samples were collected at 0, 2, 4, and 6 h for HPLC analysis. Calculate stability (%) = (Ct / C0) × 100, where Ct and C0 are concentrations at time t h and 0 h, respectively.

mPTP in 4T1 cells = assay: Mitochondrial permeability transition pore opening assay (Calcein AM); assay type: cell-based, Mouse; conditions: 6.25 μM, 24 h
From the text: On the other hand, rhein could also disturb mitochondria, the camp of OXPHOS, to further prevent cancer cells from obtaining ATP by inducing pathological opening of mPTP [30]. We first detected mPTP on 4T1 cancer cells treated with indicated drugs according to the mPTP assay kit. The green fluorescence of Calcein AM in mitochondria would vanish when the quencher entered mitochondria through the opened mPTP channel. […] The sustained opening of mPTP along with the loss of Δψm. Thus, we further examined the Δψm of 4T1 cancer cells with JC-1 fluorescence dyes and tetramethylrhodamine, ethyl ester (TMRE) probe. The JC-1 dyes underwent a transition from aggregated red fluorescence to monomeric green fluorescence with mitochondrial depolarization in cells, and the increase of green/red fluorescence intensity ratio of JC-1 dyes indicated mitochondrial depolarization.
The opening status of the mPTP in 4T1 cells were tested with fluorescent probe Calcein AM. Briefly, 4T1 cells were seeded into 6-wells plates at a density of 10 × 10^4 cells per well and treated with various drugs at 6.25 μM for 24 h. After being washed twice with PBS, the cells were stained with Calcein AM staining solution (1 ×) and CoCl2 fluorescence quenching solution (1 ×) for 45 min at 37 °C in the dark. Next, they were further cultured with fresh medium at 37 °C for another 30 min in the dark. […]

Row | SMILES | intracellular ROS (DCFH-DA fluorescence intensity) (4T1 cells [1]; flow cytometry) | apoptosis rate (4T1 cells [2]) [%] | stability in simulated gastric acid (pH 1.5) and intestinal (pH 6.8) conditions [3] [%] | mPTP opening (Calcein AM green fluorescence) (mPTP in 4T1 cells) | superoxide radical anion (DHE fluorescence) (4T1 cells [1]; 24 h, CLSM) | ^1O2 increase compared with control group (4T1 cells [1]; flow cytometry) | ·OH increase compared with control group (4T1 cells [1]; flow cytometry) | apoptosis in comparison with control group, in words (4T1 cells [2])
1 | O=C(O)c1cc(O)c2c(c1)C(=O)c1cccc(O)c1C2=O [Rhein, 4,5-dihydroxyanthraquinone-2-carboxylic acid] | slight enhancement |  |  |  |  |  |  | 
2 | O=C(OCCOC(=O)C(Cl)Cl)c1cc(O)c2c(c1)C(=O)c1cccc(O)c1C2=O [Rhein-DCA] | stronger fluorescence signal | 37.4 | 85 | faintest green fluorescence | remarkable red intensity | about 2.4 fold | about 1.4 fold | 
3 | O=C(O)C(Cl)Cl [DCA, Dichloroacetate] |  |  |  |  |  |  |  | no obvious changes
